Measured values from ChEMBL document CHEMBL1201862, “PubChem BioAssay data set” (2004).
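Test compounds were applied to cells in 96-well plates for 48 hours at 5 doses. GI50 = concentration required for 50% inhibition of growth.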 Calls of active or inactive are those of the source. Rule as the data show it: active = GI50 up to about 1.1 µM and inactive = higher.

Experiments:
Assay in all cases: DTP human tumour cell line panel, 48 h
[1] = system: 786-0
[2] = system: UO-31
[3] = system: LXFL 529
[4] = system: SF-295
[5] = system: Malme-3M
[6] = system: NCI-H226
[7] = system: HOP-92
[8] = system: SK-MEL-5
[9] = system: HT-29
[10] = system: MCF7
[11] = system: NCI-H522
[12] = system: SK-MEL-28
[13] = system: SF-268
[14] = system: SNB-19
[15] = system: SK-OV-3
[16] = system: UACC-62
[17] = system: BT-549
[18] = system: EKVX
[19] = system: NCI/ADR-RES
[20] = system: MDA-MB-231

Compound | GI50 [1] | GI50 [2] | GI50 [3] | GI50 [4] | GI50 [5] | GI50 [6] | GI50 [7] | GI50 [8] | GI50 [9] | GI50 [10] | GI50 [11] | GI50 [12] | GI50 [13] | GI50 [14] | GI50 [15] | GI50 [16] | GI50 [17] | GI50 [18] | GI50 [19] | GI50 [20]
O=C(Nc1cccc(C(F)(F)F)c1)C(=O)C(C(=O)c1ccc2ccccc2c1)C1OC(=O)c2ccccc21 (stereo unspecified) | 4.21 µM (inactive) | 12.4 µM (inactive) | 4.82 µM (inactive) | 5.19 µM (inactive) | 6.81 µM (inactive) | 2.89 µM (inactive) | 22.8 µM (inactive) | 10.5 µM (inactive) | 13.5 µM (inactive) | 7.16 µM (inactive) | 8.26 µM (inactive) | 6.79 µM (inactive) | 5.05 µM (inactive) | 6.25 µM (inactive) | 21.6 µM (inactive) | 7.53 µM (inactive) | 14.3 µM (inactive) | 14.5 µM (inactive) |  | 
CC(C)(CN1CCCCC1)C(=O)CC(SCCS(=O)(=O)O)c1ccc(Br)cc1 (stereo unspecified) | 1.26 µM (inactive) | 1.47 µM (inactive) | 1.24 µM (inactive) | 5.12 µM (inactive) | 1.39 µM (inactive) | 3.26 µM (inactive) | 0.578 µM (active) | 1.8 µM (inactive) | 1.75 µM (inactive) |  | 1.15 µM (inactive) | 3.27 µM (inactive) | 2.61 µM (inactive) | 2.34 µM (inactive) | 2.93 µM (inactive) | 1.84 µM (inactive) |  | 2.92 µM (inactive) |  | 
Cc1ccc(-c2cc(-c3ccco3)c(C#N)c(O)n2)cc1 | > 100 µM (inactive) | > 100 µM (inactive) | > 100 µM (inactive) | > 100 µM (inactive) | > 100 µM (inactive) | > 100 µM (inactive) | > 100 µM (inactive) | > 100 µM (inactive) | > 100 µM (inactive) |  | > 100 µM (inactive) | > 100 µM (inactive) | > 100 µM (inactive) | > 100 µM (inactive) | 29.4 µM (inactive) | > 100 µM (inactive) |  | > 100 µM (inactive) |  | 
OCC(O)COc1c(Cl)ccc(Cl)c1Cl (stereo unspecified) | > 100 µM (inactive) | > 100 µM (inactive) | > 100 µM (inactive) | > 100 µM (inactive) | > 100 µM (inactive) | > 100 µM (inactive) | > 100 µM (inactive) | > 100 µM (inactive) | > 100 µM (inactive) |  | > 100 µM (inactive) | > 100 µM (inactive) | > 100 µM (inactive) | > 100 µM (inactive) | > 100 µM (inactive) | > 100 µM (inactive) |  | > 100 µM (inactive) |  | 
CCOC(=O)c1sc2c(sc(=O)n2-c2ccccc2)c1O | > 100 µM (inactive) | > 100 µM (inactive) | > 100 µM (inactive) | > 100 µM (inactive) | > 100 µM (inactive) | > 100 µM (inactive) | > 100 µM (inactive) | > 100 µM (inactive) | > 100 µM (inactive) |  | > 100 µM (inactive) | > 100 µM (inactive) | > 100 µM (inactive) | > 100 µM (inactive) | > 100 µM (inactive) | > 100 µM (inactive) |  | > 100 µM (inactive) |  | 
CCN(CC)CCn1c2ccccc2c(=O)c2c(O)ccc(O)c21 | 34.1 µM (inactive) | 47.4 µM (inactive) | 19.9 µM (inactive) | 22.5 µM (inactive) | 24.7 µM (inactive) | 53.6 µM (inactive) | 19.4 µM (inactive) | 21.3 µM (inactive) | 35.9 µM (inactive) | 18.8 µM (inactive) | 15.4 µM (inactive) | 33.2 µM (inactive) | 30.5 µM (inactive) | 58.9 µM (inactive) | 69.8 µM (inactive) | 3.48 µM (inactive) | 22.5 µM (inactive) | > 46.5 µM (inactive) | 19.6 µM (inactive) | 16.1 µM (inactive)
Cc1cc2c(s1)C(=O)c1sccc1C2=O | 1.83 µM (inactive) | 0.805 µM (active) | 1.19 µM (inactive) | 0.344 µM (active) | 0.168 µM (active) | 1.76 µM (inactive) | 1.52 µM (inactive) | 0.162 µM (active) | 2.04 µM (inactive) | 1.26 µM (inactive) | 0.552 µM (active) | 0.2 µM (active) | 0.762 µM (active) | 1.66 µM (inactive) | 2.06 µM (inactive) | 0.24 µM (active) |  | 1.84 µM (inactive) | 0.459 µM (active) | 1.07 µM (active)
